Our source for the EC50 values is BindingDB's records for doi:10.7270/Q2B27SRF (Broad Institute, 2010).

The structures appear in SMILES notation. pEC50: −log10 of the molar value.

For this experiment, the target named is Serine/threonine-protein kinase 33 (Homo sapiens, UniProt Q9BYT3). The experiment is described as follows: inhibition of STK33 phosphorylation of MBP – biochemical, luminescence, cell-free, retest, dose response (AID 2821).
Serine/threonine-protein kinase 33, sequence (Q9BYT3 whole entry): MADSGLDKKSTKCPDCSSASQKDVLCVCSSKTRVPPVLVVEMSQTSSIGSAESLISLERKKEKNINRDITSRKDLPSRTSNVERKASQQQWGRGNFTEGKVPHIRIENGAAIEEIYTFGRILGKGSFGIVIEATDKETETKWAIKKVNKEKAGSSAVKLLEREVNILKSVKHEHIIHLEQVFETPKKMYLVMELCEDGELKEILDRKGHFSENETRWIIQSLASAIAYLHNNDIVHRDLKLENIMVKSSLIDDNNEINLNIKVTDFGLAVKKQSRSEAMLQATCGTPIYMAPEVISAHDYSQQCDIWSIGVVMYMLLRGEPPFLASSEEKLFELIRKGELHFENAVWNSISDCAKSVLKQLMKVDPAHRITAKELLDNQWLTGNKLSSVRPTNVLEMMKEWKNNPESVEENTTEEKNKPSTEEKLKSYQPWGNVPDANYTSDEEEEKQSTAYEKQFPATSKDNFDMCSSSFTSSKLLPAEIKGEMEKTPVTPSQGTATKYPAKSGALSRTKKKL
With `O=C1NC2c3ccccc3C(=O)N2c2c1cnn2-c1ccccc1` (stereo not drawn) [MLS000028140], the pEC50 (in general, the EC50 on a negative log10 scale, so that one unit is a factor of ten) was less than 3.92.

As to `O=C1N=c2ccccc2=C1NNc1ccc(C(=O)O)cc1` [4-[2-(2-oxidanylideneindol-3-yl)hydrazinyl]benzoic acid], the pEC50 was 4.43.

The molecule `O=C(Nc1cc(C(=O)Nc2ccccc2C(=O)O)cc(C(=O)Nc2ccccc2C(=O)O)c1)c1ccccc1` [SMR000658665] showed a pEC50 of less than 3.92.

With `Cc1c(/C=C/C(=O)c2ccc(O)cc2)cnn1C` [MLS000578554], the pEC50 is 4.65.

Regarding `O=C(O)c1cc(N=NCc2c(O)ccc3ccccc23)ccc1Cl` [MLS001173801], the pEC50 is 4.49.

`Nc1ccc(N=Nc2ccccc2O)c(N)c1` [SMR000476341] gave a pEC50 of 4.79.

On to `O=C1NC(=O)/C(=C\c2ccc(O)cc2O)S1` [SMR000274064], for which the negative-log EC50 (pEC50) was 5.06.

The molecule `CN1CCc2c(sc3c2c(=O)n(-c2ccccc2)c2n[nH]c(=S)n32)C1` [MLS000558136] gave a pEC50 of less than 3.92.

As to `COc1ccc(NC(=S)Nc2ccc3cn[nH]c3c2)cc1` [MLS001005420], the negative logarithm of the EC50 (pEC50) is less than 3.92.

For the molecule `CC(C)n1cnc2c(Nc3cccc(Cl)c3)nc(N(CCO)CCCO)nc21`, the pEC50 is 5.54.

In the case of `Nc1cc(C(=O)O)c(N)c2c1C(=O)c1ccccc1C2=O` [1,4-bis(azanyl)-9,10-bis(oxidanylidene)anthracene-2-carboxylic acid], the pEC50 is 5.45.

Consider `O=c1ccc2cc3c([nH]c4ccc(Br)cc43)oc-2c1O` [9-bromo-4-hydroxy-6H-[1]benzopyrano[2,3-b]indol-3-one], for which the pEC50 was 5.40.

On to `Cc1cc(N2C(=O)c3ccc(C(=O)Nc4ccc(O)cc4C(=O)O)cc3C2=O)no1` [5-hydroxy-2-[[[2-(5-methyl-3-isoxazolyl)-1,3-dioxo-5-isoindolyl]-oxomethyl]amino]benzoic acid], for which the pEC50 is 4.62.

`CCC(Sc1ccc2nnc(-c3ccc(OC)c(OC)c3)n2n1)C(=O)O` (stereo not drawn): the pEC50 was 4.88.

`O=c1c(-c2c(O)cc(O)c3c2O[C@H](c2ccc(O)cc2)CC3)c(-c2ccc(O)cc2)oc2cc(O)cc(O)c12` [3-[(2S)-5,7-dihydroxy-2-(4-hydroxyphenyl)-3,4-dihydro-2H-1-benzopyran-8-yl]-5,7-dihydroxy-2-(4-hydroxyphenyl)-1-benzopyran-4-one] gave a pEC50 of less than 3.92.

As for `COc1cc(C(=O)NC2CCN(C)CC2)ccc1Nc1ncc2c(n1)N(C1CCC(O)CC1)CCC(=O)N2C` (stereo not drawn) [MLS002232305], the pEC50 was 5.08.

As to `Oc1ccc(C=NNC(=S)NN=Cc2ccc(O)cc2)cc1` [1,3-bis[(4-oxo-1-cyclohexa-2,5-dienylidene)methylamino]thiourea], the pEC50 is 4.39.

`CCCCCCCCCCOC(=O)Cn1c(COc2ccc(Cl)cc2)[n+](C)c2ccccc21` [decyl 2-[2-[(4-chloranylphenoxy)methyl]-3-methyl-benzimidazol-3-ium-1-yl]ethanoate;chloride] gave a pEC50 of less than 3.92.

Turning to `N#CC(C(=O)c1ccco1)c1nc2ccccc2[nH]1` (stereo not drawn) [SMR000305206], the pEC50 is 5.07.

On to `C=CC(=O)Nc1ccc(Nc2nc(NC3CCC(N(C)C)CC3)nc3c2ncn3C(C)C)cc1` (stereo not drawn) [N-[4-[[2-[[4-(dimethylamino)cyclohexyl]amino]-9-propan-2-yl-purin-6-yl]amino]phenyl]prop-2-enamide], for which the pEC50 is 6.05.

`Cc1occc1C(=O)NN=Cc1ccc(N(C)C)cc1` [N-[[4-(dimethylamino)phenyl]methylideneamino]-2-methylfuran-3-carboxamide] had a pEC50 of less than 3.92.

As to `CN1CCN(c2ccc(NC(=O)c3ccc(-c4cccc([N+](=O)[O-])c4)o3)cc2)CC1` [N-[4-(4-methylpiperazin-1-yl)phenyl]-5-(3-nitrophenyl)furan-2-carboxamide], the negative-log EC50 (pEC50) was 4.69.

Regarding `COc1cccc(-c2onc3ccc(C(=O)/C=C/N(C)C)cc23)c1` [MLS001165915], the pEC50 is 4.92.

Regarding `COc1cc(C=NNC2=c3ccccc3=NC2=O)ccc1O`, the pEC50 was 5.03.

Regarding `CN1CCN(C=NC2=NN(c3cccc(C(F)(F)F)c3)CC2)CC1` [MLS000418536], the pEC50 was less than 3.92.

For the molecule `COc1ccc(N=CC2C(=O)Nc3ccccc32)cc1OC` (stereo not drawn), the negative logarithm of the EC50 (pEC50) was 5.28.

In turn, `CCN(CC)C(=O)c1ccc(NC(=O)Nc2ccccc2F)cc1` [SMR000376874] had a pEC50 of less than 3.92.

In turn, `CNC(=S)Nc1cccc(-c2cnc3ccccc3n2)c1` showed a pEC50 of less than 3.92.

With `Oc1cc(O)cc(/C=C/c2ccc(O)cc2O)c1` [(oxyresveratrol)4-[(E)-2-(3,5-dihydroxyphenyl)vinyl]benzene-1,3-diol], the pEC50 is 5.02.

On to `CCOC(=O)Cc1nnc(NC(=O)COc2ccc(C)cc2)s1` [MLS000082525], for which the pEC50 was less than 3.92.

For the molecule `CC(=O)N(C)c1ccc(N=Cc2c(O)ccc3ccccc23)cc1` [MLS001212262], the pEC50 is 5.42.

Turning to `Cc1cc(C=C2C(=O)c3ccccc3C2=O)c(C)n1-c1cccc(C(=O)O)c1` [3-[3-[[1,3-bis(oxidanylidene)inden-2-ylidene]methyl]-2,5-dimethyl-pyrrol-1-yl]benzoic acid], the pEC50 is less than 3.92.

In the case of `CN(C)c1nc2sc3c(c2c(=O)n1C)CC(C)(C)OC3` [MLS000071412], the pEC50 is less than 3.92.

In turn, `COc1ccc(C(=O)ON=C(N)c2ccccn2)cc1` [SMR000608101] showed a pEC50 of 4.39.

`COc1cc2c(ccc3cc(OC)c(OC)c(O)c32)cc1O` [3,6,7-trimethoxyphenanthrene-2,5-diol] gave a pEC50 of 4.56.

`COc1ccc(-c2oc3ncnc(NCCCN(C)C)c3c2-c2ccc(OC)cc2)cc1` [N-[5,6-bis(4-methoxyphenyl)furo[2,3-d]pyrimidin-4-yl]-N',N'-dimethyl-propane-1,3-diamine]: the pEC50 is 4.47.

On to `O=C(Nc1nc2ccccc2[nH]1)c1ccc(Br)o1` [SMR000352903], for which the pEC50 is 5.00.

With `COc1cccc(C(=O)ON=C(N)c2ccccn2)c1` [The compound has not trivial name.], the pEC50 is 4.64.
